In data set [1] the test system is Western diet fed Sprague-Dawley rats. As to the kind of experiment: Rat western diet model: in vivo effects on plasma and hepatic triglyceride levels. The settings on record: oral twice daily 3-100 mg/kg, compared with chow-fed vehicle animals. An excerpt: The rat western diet model was utilized to assess the effects of DGAT2 inhibitor treatment on plasma triglyceride production and hepatic triglyceride content in vivo. Male Sprague-Dawley rats were housed under standard laboratory conditions on a 12-hour light, 12-hour dark cycle (lights on at 06:00). Two weeks prior to study start animals were placed on a high-fat, high sucrose, high-cholesterol diet (D12079b, provided by Research Diets, New Brunswick, N.J.). This diet provides ˜43% of kilocalories from carbohydrate and ˜41% of kilocalories from fat. Example 4 was administered orally as a solution (10 mL/kg dosing volume) in 0.5% methylcellulose in deionized water, pH 7.0-7.5 (methylcellulose was obtained from Sigma-Aldrich, St. Louis, Mo.). […] Plasma TG levels were determined using a Roche Hitachi Chemistry analyzer according to the manufacturer's instructions (Roche Diagnostics Corporation, Indianapolis, Ind.) and data was analyzed using GraphPad Prism (GraphPad Software, Inc., La Jolla, Calif.). […] The triglyceride assay was performed through absorbance and reported as milligrams per deciliter. […]
FIG. 4 plots the multiple dose effects of Example 4 on Plasma Triglyceride in Western Diet Fed Sprague-Dawley Rats where plasma triglyceride levels were determined from blood drawn from the lateral tail vein 2-hours following the final dose of Example 4. […]

Data set [2] in a line: Determination of pKa (capillary electrophoresis, Analiza). Type of data set: physicochemical. The settings on record: most basic pKa, mean.
Data set [3] is described as follows: Intrinsic clearance in human hepatocytes (relay method). Format: in vitro ADME. Particulars: cryopreserved human hepatocytes (suspension), relay hepatocyte assay, 1 μM test compound, mean +/− Std Dev. As to the method:
Cryopreserved human hepatocytes (Lot DCM from BioreclamationIVT) were used. […] At time 0 and 4 h, 25 μL of hepatocyte suspension was removed from the incubation and added to 50 μL of ice-cold acetonitrile (containing metoprolol, indomethacin, and terfenadine as internal standards) to quench the reaction. The samples were centrifuged (Eppendorf, Hauppauge, N.Y.) at 3000 rpm (1439×g) for 10 min at room temperature, and 50 μL of supernatant was transferred to a clean plate, dried completely, and reconstituted before liquid chromatography/tandem mass spectrometry (LC-MS/MS) analysis. The remaining hepatocyte suspensions in the incubation plate were centrifuged (3000 rpm, 1439×g, 10 min, room temperature). The supernatant of 300 μL was transferred to a clean 24-well plate and stored at −80° C. until the next relay experiment. For the second relay experiment, the supernatant plates were warmed first to room temperature for 30 minutes, then to 37° C. for 30 min, and hepatocytes were added to the samples to give a final cell density of 0.5 million cells/mL. The plates were incubated at 37° C. for 4 h, sampled, and processed as described above. Five relays were performed to give a total incubation time of 20 h, with sampling points at (0, 4, 8, 12, 16 and 20 h). The concentrations of test compound determined at each time point by the LC-MS/MS analysis were used to calculate the intrinsic clearance.

A short description of data set [4]: High throughput determination of intrinsic clearance in human hepatocytes. Type of data set: in vitro ADME. The settings on record: human, pooled cryopreserved human hepatocytes (suspension), high throughput human hepatocyte assay, 1 μM test compound; mean +/− Std Dev. On the procedure:
The incubation was carried out at 37° C. […] The samples were centrifuged (Eppendorf, Hauppauge, N.Y.) at 3000 rpm for 5 min at 4° C.

Data set [5] can be described thus: Intrinsic clearance in human liver microsomes. Format: in vitro ADME. The settings on record: human, pooled human liver microsomes, pH 7.4, human liver microsome assay, 1 μM test compound; mean +/− STD Dev. On the procedure:
The incubations were conducted at 37° C. […] (Sorvall R C 3C Plus, Thermo Scientific, Waltham, Mass.).

Data set [6] can be described thus: Thermodynamic solubility in various biorelevant media (PBS, SGN, FaSSIF, FeSSIF). Type of data set: physicochemical. Particulars: 25 °C, thermodynamic from solid. On the procedure: The solubility of active pharmaceutical ingredients is an important characteristic in determining biological performance and ease of formulation during drug development, with high solubility being preferred (Klein, S. 2010, The AAPS Journal, 12, 397-406; Di, L., et al 2012, Drug Disc. Today, 17.486-495). A test sample of crystalline solid (˜7 mg) was combined in a vial with 1 mL of the relevant buffer solution and the mixture vortexed to combine. If the solid dissolved completely, additional solid was added with vortexing until a saturated solution was obtained. The saturated solution/solid mixture was capped and subjected to temperature cycling as follows: 1 min at 25° C.; 8 h at 40° C.; 5 h at 15° C. and 12 h at 25° C. The mixture was filtered in a centrifugal filtration device (0.22 μm PVDF filter, MilliporeSigma, Milwaukee, Wis.) at 13,000 rpm and the concentration of the test compound in the filtrate was determined by HPLC/UPLC with reference to a three point standard curve. Phosphate buffered saline (PBS, pH 6.8, 50 mM phosphate buffer, 250 mM NaCl). Simulated gastric fluid (SGN pH 1.2, USP recipe). Fasted state simulated intestinal fluid (FaSSIF, 3 mM sodium taurocholate, 0.75 mM phospholipid from soybean lecithin, 50 mM phosphate buffer, ionic strength adjusted to 250 mM with NaCl, pH 6.8) and fed state simulated intestinal fluid (FeSSIF, 15 mM sodium taurocholate, 3.75 mM phospholipid from soybean lecithin, 144 mM acetic acid, 50 mM phosphate buffer, ionic strength adjusted to 250 mM with NaCl, pH 6.8).

Values after ≈ are worked out from the molar mass of the structure shown. A value given as a limit tells only on which side of the number the result lay.

As usually defined, the pKa is the pH at which an ionisable group is half protonated. In general, hepatocyte CLint refers to a measure of how fast metabolising enzymes remove a compound, apart from limits set by blood flow. For orientation: microsomal CLint means a measure of how fast metabolising enzymes remove a compound, apart from limits set by blood flow. A higher microsomal CLint goes with rapid turnover. Usually solubility stands for the dissolved amount per volume that the medium holds. High values mean much dissolved substance, low ones little dissolved substance.

As for `CCOc1cccnc1Oc1cncc(-c2ncc(C(=O)N[C@@H]3CNC[C@@H](F)C3)cn2)c1` [Example 4, 2-{5-[(3-Ethoxypyridin-2-yl)oxy]pyridin-3-yl}-N-[(3S,5S)-5-fluoropiperidin-3-yl]pyrimidine-5-carboxamide], the “circulating triglyceride response, resulting levels” value in data set [1] is “approached those of the chow-fed vehicle animals”. The compound also displayed a pKa in data set [2] of 7.5. The values for the hepatocyte CLint at 1 μM in data set [3] and in data set [4] were 0.98 µL/min/1e6 cells and < 1.8 µL/min/1e6 cells, respectively. For the same compound, the microsomal CLint at 1 μM in data set [5] was < 7 µL/min/mg. For the same compound, the solubility at 25 h in data set [6] (fasted state simulated intestinal fluid (FaSSIF), FaSSIF pH 6.8) is 955 µg/mL (≈ 2180 µM); in data set [6] (phosphate buffered saline, aqueous buffer, PBS, pH 6.8) it was 580 µg/mL (≈ 1320 µM); in data set [6] (simulated gastric fluid, SGN pH 1.2), > 27000 µg/mL.

These data come from patent publication US11065249B2, “Diacylglycerol acyl transferase 2 inhibitor” (Pfizer Inc., priority 2019, dated 2021).
